Assay results taken from patent US9475840B2, “Protease-resistant compounds useful as shuttles through the blood-brain barrier and shuttle-cargo constructs” (UNIVERSITAT DE BARCELONA, priority 2012, dated 2016).
Like-named read-outs stand apart in the source and are kept apart here. Where a SMILES comes first, the peptide text is derived from it. [ ]: non-standard residue; d: D form. Quantum Dot = not defined here

Assays:
[1] = Transport across the BBB, in vitro co-culture cell assay (transwell); conditions: pH 7.4
From the text: (§1) The evaluation method chosen to test the compounds of formula (I) and (II) of the invention was a cell-based assay consisting of a co-culture of brain endothelial cells and astrocytes, which allows to evaluate or to predict the transport of compounds through the BBB. […] Under these conditions endothelial cells are able to reach the confluence mimicking the BBB. […] Is commonly used model for permeation studies and toxicity of compounds across the BBB.
(§2) The co-culture assay was used to determine the capacity of the constructs cargo-shuttle to cross the BBB. […] The permeability tests were performed in Ringer-HEPES buffer at pH 7.4. The compound of interest was dissolved in the buffer to the desired concentration.
(§3) Once the endothelial cells were confluent on the filters (transwells) these were washed with Ringer-HEPES buffer. The acceptor well was filled with 800 μL of Ringer-HEPES buffer and the donor well with 200 μL of the solution of the compound to be studied. The system was incubated at 37° C. and 5% CO2 for 2 h. After that time the content of the acceptor and donor compartments were analyzed by HPLC, ICP or fluorescence measurements (depending on cargo anchored to the shuttle). Transport was also confirmed by mass spectrometry MALDI-TOF.
(§4) The apparent permeability was calculated using the following equation: Papp=(dQ/dt)*(1/A)*(1/C0)(cm/s)
(§5) Where (dQ/dt) is the amount of compound present in the compartment acceptor function of time (nmol/s). A is the area of the filter (cm2) and C0 is the initial concentration of the compound applied in the donor compartment (nmol/mL).
(§6) The values of permeability equal to or higher than 1×10-6 cm/s are considered exceptionally good, and values equal to or higher than 0.1×10-6 cm/s are considered good.

[2] = tested on: co-culture of brain endothelial cells and astrocytes; assay: as above; conditions: — = not detected in acceptor compartment; for Transport (%) (2 h): percentage of transport after a 2 hours assay; for Papp (×10^6) cm/s: apparent permeability, 2 h at 37° C., Ringer-HEPES buffer pH 7.4, triplicate, 50 μM or 0.75 nM (particles)
From the text: as §1, §2, §3, §4, §5, §6

[3] = Stability of the shuttle in human serum; conditions: for half-life: human, serum
Method: At a range of times, 50 μL aliquots were collected to which methanol was added in order to precipitate the serum proteins. The samples were centrifuged, filtered and analysed by HPLC to determine the degree of degradation of the BBB-shuttle

[4] = tested on: co-culture of brain endothelial cells and astrocytes
From the text: as §1, §2, §3, §4, §5, §6

Molecule | Papp [1] [×10⁻⁶ cm/s] | Transport (%) (2 h) [2] | Papp (×10^6) cm/s [2] | other results
Rhodamine b-L-Lys(Antibody)-D-Pro-D-Trp-D-Val-D-Pro-D-Ser-D-Trp-D-Met-D-Pro-D-Pro-D-Arg-D-His-D-Thr-NH2 [Example 17] | – | – | 0.16 ± 0.10 (×10^6) cm/s | –
Antibody Avastin partially reduced and trapped with Ellman's reagent: bevacizumab (Avastin) antibody cargo, partially reduced and trapped with Ellman's reagent | – | 0.064 ± 0.006 | 0.054 ± 0.005 (×10^6) cm/s | –
Quantum Dot-Gly-D-Pro-D-Trp-D-Val-D-Pro-D-Ser-D-Trp-D-Met-D-Pro-D-Pro-D-Arg-D-His-D-Thr-NH2 ({Quantum Dot}-G[dP][dW][dV][dP][dS][dW][dM][dP][dP][dR][dH][dT]-NH2; reading uncertain; also: quantum dot nanoparticle conjugate, printed as Quantum Dot-Gly-D-Pro-D-Trp-D-Val-D-Pro-D-Ser-D-Trp-D-Met-D-Pro-D-Pro-D-Arg-D-His-D-Thr-NH2) [Example 10] | – | 0.31 ± 0.02 | 0.27 ± 0.03 (×10^6) cm/s | –
Rhodamine b-L-Lys(Antibody)-D-Pro-D-Trp-D-Val-D-Pro-D-Ser-D-Trp-D-Met-D-Pro-D-Pro-D-Arg-D-His-D-Thr-NH2 [Example 20] | – | – | 0.36 ± 019 (×10^6) cm/s | –
H-Gly-D-Pro-D-Trp-D-Val-D-Pro-D-Ser-D-Trp-D-Met-D-Pro-D-Pro-D-Arg-D-His-D-Thr-NH2 [Example 2] | – | – | – | Transport (%) (2 h) [4]: 22.3 ± 2.6%; Papp (×10^6) cm/s ([4]; pH 7.4): 19.4 ± 1.8 (×10^6) cm/s
Rhodamine b-L-Lys(Antibody)-D-Pro-D-Trp-D-Val-D-Pro-D-Ser-D-Trp-D-Met-D-Pro-D-Pro-D-Arg-D-His-D-Thr-NH2 [Example 18] | – | – | 0.18 ± 0.05 (×10^6) cm/s | –
nanoparticle superparamagnetic iron oxide (SPION)-Gly-D-Pro-D-Trp-D-Val-D-Pro-D-Ser-D-Trp-D-Met-D-Pro-D-Pro-D-Arg-D-His-D-Thr-NH2 ({SPION}-G[dP][dW][dV][dP][dS][dW][dM][dP][dP][dR][dH][dT]-NH2) [Example 11] | – | 0.22 ± 0.05 | 0.19 ± 0.07 (×10^6) cm/s | –

Continued, in another order:

Papp [1] [×10⁻⁶ cm/s] | Transport (%) (2 h) [2] | Molecule | Papp (×10^6) cm/s [2] | other results
0.14 ± 0.01 | 0.2 ± 0.04 | CSCC[C@@H](NC(=O)[C@@H](Cc1c[nH]c2ccccc12)NC(=O)[C@@H](CO)NC(=O)[C@H]1CCCN1C(=O)[C@H](NC(=O)[C@@H](Cc1c[nH]c2ccccc12)NC(=O)[C@H]1CCCN1C(=O)[C@@H](CCCCN)NC(=O)[C@@H](CCCCN)NC(=O)[C@@H](CC(C)C)NC(=O)[C@H](NC(=O)[C@@H](Cc1ccc2ccccc2c1)NC(=O)[C@@H](Cc1ccccc1)N(C)C(=O)[C@@H](C)N)C(C)C)C(C)C)C(=O)N1CCC[C@@H]1C(=O)N1CCC[C@@H]1C(=O)N[C@H](CCCNC(=N)N)C(=O)N[C@H](Cc1c[nH]cn1)C(=O)N[C@@H](C(N)=O)[C@H](C)O [Example 12, H-D-Ala-D-NMePhe-D-Nal(2)-D-Val-D-Leu-D-Lys-D-Lys-D-Pro-D-Trp-D-Val-D-Pro-D-Ser-D-Trp-D-Met-D-Pro-D-Pro-D-Arg-D-His-D-Thr-NH2] (HELM PEPTIDE1{[dA].[CN([C@H](Cc1ccccc1)C(=O)[*:2])[*:1]].[O=C([C@@H](Cc1ccc2ccccc2c1)N[*:1])[*:2]].[dV].[dL].[dK].[dK].[dP].[dW].[dV].[dP].[dS].[dW].[dM].[dP].[dP].[dR].[dH].[dT].[am]}$$$$V2.0) | – | –
9.9 ± 1.6 | 11.7 ± 6.4 | CSCC[C@@H](NC(=O)[C@H]1CCCN1C(=O)[C@H]1CCCN1C(=O)[C@@H](CCCNC(=N)N)NC(=O)[C@@H](Cc1c[nH]cn1)NC(=O)[C@H](N)[C@H](C)O)C(=O)N[C@H](Cc1c[nH]c2ccccc12)C(=O)N[C@H](CO)C(=O)N1CCC[C@@H]1C(=O)N[C@@H](C(=O)N[C@H](Cc1c[nH]c2ccccc12)C(=O)N1CCC[C@@H]1C(N)=O)C(C)C [compound 2, H-D-Thr-D-His-D-Arg-D-Pro-D-Pro-D-Met-D-Trp-D-Ser-D-Pro-D-Val-D-Trp-D-Pro-NH2, reference compound] (HELM PEPTIDE1{[dT].[dH].[dR].[dP].[dP].[dM].[dW].[dS].[dP].[dV].[dW].[dP].[am]}$$$$V2.0) | – | half-life [3]: > 24 h
12.5 ± 5.2 | 14.9 ± 2.5 | H-THRPPMWSPVWP-NH2 [compound 1, H-L-Thr-L-His-L-Arg-L-Pro-L-Pro-L-Met-L-Trp-L-Ser-L-Pro-L-Val-L-Trp-L-Pro-NH2, reference compound] | – | Degradation / half-life time in human serum (in words) ([3]; 150 μM, 37° C., 90% human serum): rapidly degraded; half-life [3]: < 1 h
16.2 ± 1.3 | 17.1 ± 2.6 | CSCC[C@@H](NC(=O)[C@@H](Cc1c[nH]c2ccccc12)NC(=O)[C@@H](CO)NC(=O)[C@H]1CCCN1C(=O)[C@H](NC(=O)[C@@H](Cc1c[nH]c2ccccc12)NC(=O)[C@H]1CCCN1C(=O)c1ccc2c(c1)C(=O)OC21c2ccc(O)cc2Oc2cc(O)ccc21)C(C)C)C(=O)N1CCC[C@@H]1C(=O)N1CCC[C@@H]1C(=O)N[C@H](CCCNC(=N)N)C(=O)N[C@H](Cc1c[nH]cn1)C(=O)N[C@@H](C(N)=O)[C@H](C)O [Example 9, 5(6)-Carboxyfluorescein-D-Pro-D-Trp-D-Val-D-Pro-D-Ser-D-Trp-D-Met-D-Pro-D-Pro-D-Arg-D-His-D-Thr-NH2] (HELM PEPTIDE1{[O=C1OC2(c3ccc(O)cc3Oc3cc(O)ccc32)c2ccc(C(=O)[*:2])cc21].[dP].[dW].[dV].[dP].[dS].[dW].[dM].[dP].[dP].[dR].[dH].[dT].[am]}$$$$V2.0) | – | –
21.4 ± 2.1 | 25.1 ± 3 | CSCC[C@@H](NC(=O)[C@@H](Cc1c[nH]c2ccccc12)NC(=O)[C@@H](CO)NC(=O)[C@H]1CCCN1C(=O)[C@H](NC(=O)[C@@H](Cc1c[nH]c2ccccc12)NC(=O)[C@H]1CCCN1)C(C)C)C(=O)N1CCC[C@@H]1C(=O)N1CCC[C@@H]1C(=O)N[C@H](CCCNC(=N)N)C(=O)N[C@H](Cc1c[nH]cn1)C(=O)N[C@@H](C(N)=O)[C@H](C)O [Example 1, H-D-Pro-D-Trp-D-Val-D-Pro-D-Ser-D-Trp-D-Met-D-Pro-D-Pro-D-Arg-D-His-D-Thr-NH2] (HELM PEPTIDE1{[dP].[dW].[dV].[dP].[dS].[dW].[dM].[dP].[dP].[dR].[dH].[dT].[am]}$$$$V2.0) | – | half-life [3]: > 24 h
8.46 ± 2.1 | 10.1 ± 1.3 | CSCC[C@@H](NC(=O)[C@@H](Cc1c[nH]c2ccccc12)NC(=O)[C@@H](CO)NC(=O)[C@H]1CCCN1C(=O)[C@H](NC(=O)[C@@H](Cc1c[nH]c2ccccc12)NC(=O)[C@H]1CCCN1C(=O)[C@@H](N)Cc1ccc(O)c(O)c1)C(C)C)C(=O)N1CCC[C@@H]1C(=O)N1CCC[C@@H]1C(=O)N[C@H](CCCNC(=N)N)C(=O)N[C@H](Cc1c[nH]cn1)C(=O)N[C@@H](C(N)=O)[C@H](C)O [Example 8, L-dopa-D-Pro-D-Trp-D-Val-D-Pro-D-Ser-D-Trp-D-Met-D-Pro-D-Pro-D-Arg-D-His-D-Thr-NH2] (HELM PEPTIDE1{[N[C@@H](Cc1ccc(O)c(O)c1)C(=O)[*:2]].[dP].[dW].[dV].[dP].[dS].[dW].[dM].[dP].[dP].[dR].[dH].[dT].[am]}$$$$V2.0) | – | –
